Experiments:
Z-HP9 = assay: SPR off-rate screening (single-cycle kinetics), immobilized Z-HP9; assay type: binding; settings: primary probe HP9 (immobilized Z-HP9), 25 °C, PBS-T pH 7.4, 120 nM HP16/HP20 or 362 nM HP21/HP19, dissociation 150 min, 1:1 model, duplicates
Protocol: (§1) The stability of new pretargeting probe combinations was assessed using SPR, and duplex melting temperatures were measured with UV–vis spectroscopy. In SPR, a high concentration of the secondary probe was injected over immobilized primary agents, and the dissociation of the hybridized complexes was monitored over 150 min (see Figures 3A, S22, and Table 2).
(§2) We utilized SPR on a Biacore T200 instrument (Cytiva) to examine how secondary PNA probes (6-mer HP19, 7-mer HP21, 8-mer HP20, and 9-mer HP16) bind to primary agents. These experiments were conducted using dextran-coated CM5 sensor chips and PBS-T buffer at pH 7.4. The ligands were immobilized through a standard EDC/NHS coupling method, and the chip surface was sealed with ethanolamine. A reference surface with no primary agent was also included.
(§3) For ranking the off-rate (kd) of the secondary probes, we employed single-cycle kinetics (SCK) at 25 °C with a flow rate of 50 μL/min. […] Secondary PNA probes were injected at various concentrations, and dissociation was monitored for 10,000 s. To regenerate the chip surface, we used two 30 s injections of 10 mM glycine-HCl, pH 1.5.
(§4) All SPR experiments were performed in duplicate, and data analysis was conducted using the Biacore T200 Evaluation software version 2.0 with a 1:1 binding model.
(§5) Figure S22: Representative SPR sensorgrams of the dissociation phase of HP16 (9-mer), HP20 (8-mer), HP21 (7-mer) and HP19 […]
(§6) After injection with the secondary probe
(§7) (120 nM of HP16 and HP20 or 362 nM of HP21 and HP19) the dissociation of the formed complex was followed for 150 minutes. All experiments were done in duplicates, and the data presented is double-referenced (reference channel and buffer injection are subtracted).
(§8) (1 picture or pasted object on this page, not shown here)

HP15 = assay: UV melting of PNA:PNA duplex with primary probe HP15; assay type: physicochemical; settings: UV 260 nm, 20-95 °C at 1 °C/min, 5 μM each probe, 10 mM phosphate buffer, 10 mM KCl, pH 7.4
Protocol: The melting temperatures of secondary probes after duplex formation with primary probes were also measured by monitoring the absorbance at 260 nm as a function of temperature (see Figure S23). All probe pairs had melting temperatures well above 37 °C (body temperature) and ranged from 51 °C for the HP6:HP19 pair with 6 complementary bases to 82 °C for the previously studied HP15:HP18 pair with 15 complementary bases (see Figure 3B and Table 2). […] This secondary structure is typically adopted by antiparallel and L-amino acid-modified PNA–PNA duplexes at neutral pH.[49]
Figure S23: Normalized temperature melting profiles from 20–95°C for different primary and secondary probe pairs. UV melting curves at 260 nm. (A) HP15 (15-mer) toward secondary 15-, 12- and 9-mers. (B) HP12 (12-mer) toward secondary 12-, 9-, 8-, 7- and 6-mers. (C) HP9 (9-mer) toward secondary 9-, 8-, 7- and 6-mers. (D) HP6 (6-mer) toward secondary 6-mer.
Concentrations of duplexes in A–D are 5 μM in 10 mM […] with 10 mM KCl at pH 7.4.
(also on this page, place not known: Fraction melted Fraction meltedFraction melted Fraction melted) […]
Supplementary Material and methods […]
Biophysical characterization of PNA:PNA duplexes using CD Spectroscopy and […]
Circular dichroism (CD) and UV melts of PNA:PNA duplexes were measured on a CD spectrometer (Applied Photophysics, Leatherhead, UK) with Peltier temperature control and an external temperature probe. […]
from 20°C to 95°C with a 1°C/min temperature gradient. Simultaneously, the UV absorbance at 260 nm was recorded as a function of temperature. Fraction melted data was calculated […]
Fraction melted = 1 ― UVds― UVss , where UVss and UVds are the UV absorbances at 95°C and 20°C, respectively. The melting temperature (Tm) was determined as the maximum of the first derivative of the melting curve and was computed using the Global 3 analysis software (Applied Photophysics, […]
CD spectra in the range of 200–300 nm were recorded for all hybridized PNA:PNA pairs at 20°C before and after the UV melting experiments. […]

Z-HP15 = assay: SPR off-rate screening (single-cycle kinetics), immobilized Z-HP15; assay type: binding; settings: primary probe HP15 (immobilized Z-HP15), 25 °C, PBS-T pH 7.4, 120 nM HP16/HP20 or 362 nM HP21/HP19, dissociation 150 min, 1:1 model, duplicates
Protocol: as §1, §2, §3, §4, §5, §6, §7, §8

[1] = Solubility of secondary probes in labeling buffer; assay type: physicochemical; settings: 0.2 M NH4Ac, pH 5.5, 25 °C
Protocol: However, as we moved to shorter PNA oligomers, solubility saw a substantial, nonlinear increase. […] For example, at 25 °C, the maximum soluble concentration of HP17 (12-mer) was around 6 μM. […]
pH 5.5 at 25°C. Dilution series of HPLC-purified and lyophilized secondary probes (1, 3, 6, 9, 13, 26, 39, 52 and 65 µM) for […]
samples were heated at 95°C for five minutes and concentration of the soluble fraction was determined by UV absorption at 260 nm before (grey bars), and after (black bars) an 18-hour static incubation at 25°C. Duplicates were prepared of all samples and the data is presented as the mean ± SD. The maximum soluble concentration of each probe, indicated in panels A-E as a dotted line, was defined as the highest concentration at which at least 95% is still in the soluble fraction after an 18-hour incubation at 25°C. PNA-aggregates are temperature-labile, as exemplified in panel C for 82 µM HP17.
After an 18-hour incubation 25°C, 6 µM is left in the soluble fraction (left black bar) but heating the sample at 95 °C for five minutes completely redissolved HP17 aggregates into solution (right black bar).
as §8
Supplementary Material and methods
Solubility of secondary probes
HPLC-purified and freeze-dried secondary probes were resuspended in 10 mM NaAc, pH 3.5-3.6 and freeze-dried in smaller aliquots. The secondary probes were re-dissolved in 0.2 M NH4Ac, pH 5.5, and the samples were heated at 95 °C for five minutes to ensure complete dissolvement. Dilution series of secondary probes (1, 3, 6, 9, 13, 26, 39, 52 and 65 μM) for […]
NH4Ac, pH 5.5. The samples were then left for an 18-hour static incubation at 25 C, before being centrifugated at 21,100 x g for 5 minutes on a standard benchtop centrifuge (Eppendorf). The supernatants were transferred to fresh 1.5 mL Eppendorf-tubes, and the […]

Substance: DOTA-AEEA-SS-aacaccagg-EEY-NH2 [HP16, 9-mer secondary PNA probe with DOTA]
- kd (Z-HP9): 2.5 × 10^–5 s^–1
- Tm (HP15): 73 °C
- kd (Z-HP15): 1.2 × 10^–5 s^–1
- increase in solubility compared to the 15-mer HP18 [1]: ~10 fold
- maximum soluble concentration ([1]; heated 95 °C 5 min, 18-h static incubation, centrifugation, UV 260 nm of supernatant, highest concentration with at least 95% still soluble, duplicates): 26 µM

Source: publication PMC11091976, “Shorter Peptide Nucleic Acid Probes Improve Affibody-Mediated Peptide Nucleic Acid-Based Pretargeting” (ACS Pharmacology & Translational Science, 2024)
